Results from BindingDB's records for doi:10.1021/ja011034p (University of Pennsylvania, 2001).

Each molecule was assayed against Carbonic anhydrase 2 [F130V] (Homo sapiens, UniProt P00918, F130V) (assay: In vitro binding of inhibitor to hCA-II). Details: pH 7.4; 37 °C.
Method: Inhibitor binding to CA II was determined using a fluorescence competition assay. Displacement of dansylamide and binding of the inhibitor was determined by measuring and comparing the average fluorescence intensities of the treated versus control reactions. Binding constants were estimated from a Dixon plot of the data (reciprocal of the average fluorescence intensity versus inhibitor concentration)

**Q.** Which Kd does the source give for `NS(=O)(=O)c1ccc(C(=O)NCc2c(F)c(F)c(F)c(F)c2F)cc1` [N-[(2,3,4,5,6-pentafluorophenyl)methyl]-4-sulfamoylbenzamide] here?
**A.** 2 nM

**Q.** How did the Kd turn out when `NS(=O)(=O)c1ccc(C(=O)NCc2cccc(F)c2F)cc1` [N-[(2,3-difluorophenyl)methyl]-4-sulfamoylbenzamide] was run?
**A.** 1.6 nM

**Q.** How did the Kd turn out when `NS(=O)(=O)c1ccc(C(=O)NCc2c(F)cccc2F)cc1` [N-[(2,6-difluorophenyl)methyl]-4-sulfamoylbenzamide] was run?
**A.** 3.9 nM

**Q.** For `NS(=O)(=O)c1ccc(C(=O)NCc2ccccc2F)cc1` [N-[(2-fluorophenyl)methyl]-4-sulfamoylbenzamide], which Kd is on record?
**A.** 2.3 nM
